“Also recorded” adds a separate entry of the source.
Assays:
[1] = test system: SOCS1, JAK2 and STAT1 in mesangial cells; assay: SOCS1/JAK2/STAT1 proteins (IF, Western blotting), mesangial cells; type: cell-based, murine; details: anti-dsDNA IgG 2 µg/ml premixed with peptide 1 µg/ml, 2 days
Description: Immunofluorescence was carried out for both IgG deposition and SOCS1 expression in frozen sections. Routinely processed sections were incubated with rabbit anti-mouse SOCS1 and then fluorescein isothiocyanate (FITC)-conjugated goat anti-rabbit IgG (2 µg/ml; Southern Biotech, Birmingham, AL, USA) in order, or directly with goat anti-mouse IgG-FITC (Southern Biotech) alone. Sections were viewed under a digital fluorescent microscope (Carl Zeiss, Jena, Germany).
Immortal murine mesangial cells and glomerular endothelial cells (Jieqing Biotech, Wuhan, China) were cultured in RPMI 1640 medium supplemented with 10% fetal bovine serum ([8], [33]). Immortal murine proximal tubular epithelial cells (kindly provided by Dr. Cheng Pan, Wuhan University, China) were cultured in Dulbecco’s modified Eagle’s medium as described previously ([34]).
(§1) By using a HiTrap purification kit (GE Healthcare, Port Washington, NY, USA) ([8]), anti-dsDNA IgG was purified from the culture supernatants of murine WJ31 hydridoma clone (IgG2a; Jieqing Biotech). Control murine IgG (IgG2a; Jieqing Biotech) was verified by enzyme-linked immunosorbent assay (ELISA) to determine that there was no binding to DNA antigen (data not shown). Cells were starved routinely before the 2-day stimulation of anti-dsDNA IgG or control IgG (2 µg/ml). In some experiments, mesangial cells were stimulated with anti-dsDNA IgG (2 µg/ml) that was premixed with D-form (ALWPPNLHAWVP) or scrambled (PLPHNPWVLAAW) ALW peptide (1 µg/ml). The cell viability of three types of cells was measured using PrestoBlue viability reagent (Life Technologies, Carlsbad, CA, USA).
Fresh tissues and cell cultures were extracted for lysates with the addition of protease inhibitor cocktail (Thermo Scientific, Waltham, MA, USA). […] The band intensities were quantitated by ImageJ 1.61u software (National Institutes of Health, Bethesda, MD, USA) and normalized to β-actin values accordingly. The intensities of blank groups were set as 1 (baseline), and the relative intensities were calculated in other groups.

[2] = test system: proximal tubular epithelial cells; assay: Cell viability (PrestoBlue), proximal tubular epithelial cells; type: cell-based, murine; details: D-form ALW 1 µg/ml, 2 days
Description: as §1
(§2) Mesangial Glomerular Tubular cells endothelial epithelial
(§3) Supplementary Figure S7. Cell viability assays of kidney cells. (A) Murine cells were cultured in vitro, and received control or anti-dsDNA IgG stimulation (2 µg/ml, 2 days). (B) Similarly, these cells were also stimulated with scrambled or D-form ALW peptide (1 µg/ml, 2 days). The cell viability was measured using PrestoBlue viability reagent. Data were from three independent experiments. Data points and error bars […]
(§4) (also on this page, place not known: µ g/ml,2 µ g/ml,2 Cell viability (%) Cell viability (%))

[3] = test system: anti-dsDNA IgG binding to dsDNA antigen; assay: Inhibition ELISA, anti-dsDNA IgG binding to dsDNA antigen; design: species or system murine; details: anti-dsDNA IgG 2 µg/ml pre-incubated with serially diluted peptide (0.04 to 80 µg/ml); three independent experiments
Description: (§5) Common ELISAs (for binding to dsDNA or peptide) and inhibition ELISAs were performed as previously described ([8], [35]). Briefly, the KIR ELISA was carried out by adding biotinylated KIR peptide (DTHFRTFRSHSDYRRI, 5 µg/ml) to streptavidin-coated 96-well plates. For inhibition with KIR (or ALW) peptide, anti-dsDNA IgG (2 µg/ml) was pre-incubated with serially diluted peptide (from 0.04 to 80 µg/ml), and then transferred to antigen-coated 96-well plates. Alkaline phosphatase-conjugated goat anti-mouse IgG (2 µg/ml; Southern Biotech) was used as secondary antibody. Similarly, for inhibition with anti-dsDNA IgG, the FITC-labeled JAK2 loop peptide (LPQDKEYYKVKEP, 0.2 µg/ml) was pre-incubated with serially diluted anti-dsDNA IgG (from 0.02 to 20 µg/ml) before transfer to KIR-coated plates, which were detected for fluorescein intensity under a Perkin Elmer Reader (Winpact Scientific, Irvine, CA, USA). Cell surface ELISA was performed by growing mesangial cells in 96-well plates ([8], [35]). All peptides were synthesized by Sangon Biotech Company (Shanghai, China).

[4] = test system: glomeruli of SCID mice; assay: Glomerular IgG deposition (IHC and IF), SCID mice; type: in vivo; details: i.v., anti-dsDNA IgG mixed with D-form ALW before injection, n = 5, versus anti-dsDNA IgG alone
Excerpt: Renal biopsies were obtained from patients with LN (n = 7), who had serum positivity of anti-dsDNA IgG (Table S1 in Supplementary Material). The diagnosis of LN was made based on the histological features of renal biopsies. For normal human controls, sera and non-lesional tissues were taken from patients (n = 5) who underwent surgical nephrectomy due to renal cell carcinoma or renal rupture (Table S1 in Supplementary Material). There was no statistical difference in term of age between the LN patients and the controls (p > 0.05). […] The MRL/lpr and MRL/MpJ mice (female, 12 or 24 weeks old, n = 5 each group) as well as SCID mice (female, 8 weeks old, n = 5 each group) were bred in the animal facility of Xi’an Jiaotong University Health Science Center. Urine, sera, and renal tissues were harvested from MRL/lpr and MRL/MpJ mice. Proteinuria was quantitated by the Coomassie brilliant blue method ([32]). All data about MRL/lpr and MRL/MpJ mice referred to that at age of 24 weeks unless otherwise noted. These SCID mice received intravenous injections of anti-dsDNA or control IgG at a dose of 100 µg twice weekly, which lasted for 4 weeks (n = 5 each group). Then, both serum and kidney samples were collected from SCID mice. This study was carried out in accordance with the recommendations of the guidelines of the Hospital Research Ethics Committee with written informed consent from all subjects. […]

[5] = test system: anti-dsDNA IgG binding to SOCS1-KIR peptide; assay: Inhibition ELISA, anti-dsDNA IgG binding to SOCS1-KIR peptide; design: species or system murine; details: anti-dsDNA IgG 2 µg/ml pre-incubated with serially diluted peptide (0.04 to 80 µg/ml); three independent experiments
Description: as §5

[6] = test system: mesangial cells; assay: Cell viability (PrestoBlue), mesangial cells; type: cell-based, murine; details: D-form ALW 1 µg/ml, 2 days
Description: as §1, §2, §3, §4

[7] = test system: anti-dsDNA IgG binding to mesangial cells; assay: Inhibition cell surface ELISA, anti-dsDNA IgG binding to mesangial cells; type: cell-based, murine; details: anti-dsDNA IgG premixed with D-form or scrambled ALW peptide; three independent experiments
Description: as §5

For “ALWPPNLHAWVP [D-form ALW, ALW peptide with two terminal residues A and P replaced with D-form ones]”, the “JAK2 protein, ALW plus anti-dsDNA IgG (consistent with mRNA decrease)” value [1] was “consistent changes”, the “SOCS1 protein level, ALW plus anti-dsDNA IgG” value [1] was “increased” and the “STAT1 protein, ALW plus anti-dsDNA IgG (consistent with mRNA decrease)” value [1] was “consistent changes”. For the same sequence, the cell viability [2] was “no changes”, the “inhibition of anti-dsDNA IgG binding to DNA antigen” value [3] was “inherited the inhibitory property of the (natural) ALW” and the “glomerular IgG deposition, ALW plus anti-dsDNA IgG” value [4] was “less IgG deposition; also recorded: significant reduction”. For the same sequence, the “inhibition of anti-dsDNA IgG binding to SOCS1-KIR peptide” value [5] was “inhibited”, the cell viability [6] was “no changes” and the “inhibition of anti-dsDNA IgG binding to mesangial cells” value [7] was “inhibited”.

From paper PMC5449454, “Anti-Double-Stranded DNA IgG Participates in Renal Fibrosis through Suppressing the Suppressor of Cytokine Signaling 1 Signals” (Frontiers in Immunology, 2017)
